Assay results as given in ChEMBL document CHEMBL3885861, “Open TG-GATES”.
Where a name gives a salt, the structure may show the parent alone.

Species on record: Rattus norvegicus
Test: Open TG-GATES - Regimen: Single
Assay type: toxicity, organism-based, Sprague-Dawley
Design: regimen Single, gender Male, age 6 weeks
Conditions: in vivo, ip, route intraperitoneal injection; for APTT / Bas / Eos / Fbg / Hb / Ht / Lym / MCH / MCHC / MCV / Mono / Neu / PT / Plat / RBC / Ret / WBC: tissue Blood; for KIDNEY_L / KIDNEY_R / KIDNEY_TOTAL: tissue Kidney; for LIVER: tissue Liver; for A/G / ALP / ALT / AST / BUN / CRE / Ca / Cl / DBIL / GLC / IP / K / LDH / Na / PL / RALB / TBIL / TC / TG / TP / gamma-GTP: tissue Plasma
[1] = 0 mg/kg, 3 h, dose level Control
[2] = 0 mg/kg, 6 h, dose level Control
[3] = 0 mg/kg, 9 h, dose level Control
[4] = 0 mg/kg, 24 h, dose level Control

## CCOC(=O)/C=C\C(=O)OCC [DIETHYL MALEATE]
[1]
  TERMINAL_BW: 198.9 g
  APTT: 16.4 s
  Bas: 0%
  Eos: 0.6%
  Fbg: 209.8 mg/dL
  Hb: 13 g/dL
  Ht: 39.1%
  Lym: 69.8%
  MCH: 21.2 pg
  MCHC: 33.4%
  MCV: 63.6 fL
  Mono: 7%
  Neu: 22.8%
  PT: 12.3 s
  Plat: 114.7 x10_4/uL
  RBC: 615.6 x10_4/ul
  Ret: 10.1%
  WBC: 113.4 x10_2/uL
  KIDNEY_L: 0.9 g
  KIDNEY_R: 0.9 g
  KIDNEY_TOTAL: 1.8 g
  LIVER: 9.2 g
  A/G: 2
  ALP: 732.6 IU/L
  ALT: 39.8 IU/L
  AST: 78.2 IU/L
  BUN: 14.6 mg/dL
  CRE: 0.5 mg/dL
  Ca: 11.2 mg/dL
  Cl: 106 meq/L
  DBIL: 0.028 mg/dL
  GLC: 187 mg/dL
  IP: 10.1 mg/dL
  K: 5.2 meq/L
  LDH: 80.6 IU/L
  Na: 140.4 meq/L
  PL: 137.4 mg/dL
  RALB: 3.6 g/dL
  TBIL: 0.3 mg/dL
  TC: 79.6 mg/dL
  TG: 38 mg/dL
  TP: 5.4 g/dL
  gamma-GTP: 1 IU/L
[2]
  TERMINAL_BW: 197.4 g
  APTT: 16.4 s
  Bas: 0%
  Eos: 1%
  Fbg: 219.8 mg/dL
  Hb: 13.4 g/dL
  Ht: 40.3%
  Lym: 67%
  MCH: 21.6 pg
  MCHC: 33.3%
  MCV: 64.8 fL
  Mono: 7.4%
  Neu: 24.6%
  PT: 12 s
  Plat: 118.6 x10_4/uL
  RBC: 621.6 x10_4/ul
  Ret: 8.9%
  WBC: 102 x10_2/uL
  KIDNEY_L: 0.8 g
  KIDNEY_R: 0.9 g
  KIDNEY_TOTAL: 1.7 g
  LIVER: 8.3 g
  A/G: 1.8
  ALP: 838.6 IU/L
  ALT: 35.2 IU/L
  AST: 67 IU/L
  BUN: 14 mg/dL
  CRE: 0.4 mg/dL
  Ca: 10.6 mg/dL
  Cl: 106.6 meq/L
  DBIL: 0.018 mg/dL
  GLC: 191 mg/dL
  IP: 10.4 mg/dL
  K: 5.2 meq/L
  LDH: 70.4 IU/L
  Na: 139.8 meq/L
  PL: 142.6 mg/dL
  RALB: 3.4 g/dL
  TBIL: 0.4 mg/dL
  TC: 84.2 mg/dL
  TG: 51.2 mg/dL
  TP: 5.3 g/dL
  gamma-GTP: 1.6 IU/L
[3]
  TERMINAL_BW: 194.7 g
  APTT: 16.6 s
  Bas: 0%
  Eos: 0.6%
  Fbg: 228.4 mg/dL
  Hb: 12.7 g/dL
  Ht: 38%
  Lym: 73.8%
  MCH: 21.7 pg
  MCHC: 33.3%
  MCV: 65 fL
  Mono: 3%
  Neu: 22.6%
  PT: 11.9 s
  Plat: 117 x10_4/uL
  RBC: 585.2 x10_4/ul
  Ret: 9.9%
  WBC: 101.3 x10_2/uL
  KIDNEY_L: 0.9 g
  KIDNEY_R: 0.9 g
  KIDNEY_TOTAL: 1.8 g
  LIVER: 7.9 g
  A/G: 2.2
  ALP: 605 IU/L
  ALT: 29.6 IU/L
  AST: 66.4 IU/L
  BUN: 11.8 mg/dL
  CRE: 0.5 mg/dL
  Ca: 10.6 mg/dL
  Cl: 106.8 meq/L
  DBIL: 0.036 mg/dL
  GLC: 191.8 mg/dL
  IP: 10.3 mg/dL
  K: 5 meq/L
  LDH: 59 IU/L
  Na: 138 meq/L
  PL: 133.2 mg/dL
  RALB: 3.6 g/dL
  TBIL: 0.4 mg/dL
  TC: 76.8 mg/dL
  TG: 40.4 mg/dL
  TP: 5.3 g/dL
  gamma-GTP: 2.4 IU/L
[4]
  TERMINAL_BW: 212.9 g
  APTT: 16 s
  Bas: 0%
  Eos: 0.4%
  Fbg: 226.8 mg/dL
  Hb: 12.9 g/dL
  Ht: 38.4%
  Lym: 79.8%
  MCH: 21.8 pg
  MCHC: 33.7%
  MCV: 65 fL
  Mono: 4.6%
  Neu: 15%
  PT: 11.7 s
  Plat: 121.2 x10_4/uL
  RBC: 590.8 x10_4/ul
  Ret: 9.5%
  WBC: 106.7 x10_2/uL
  KIDNEY_L: 0.9 g
  KIDNEY_R: 0.9 g
  KIDNEY_TOTAL: 1.8 g
  LIVER: 10.1 g
  A/G: 2.2
  ALP: 864.6 IU/L
  ALT: 34.8 IU/L
  AST: 66.8 IU/L
  BUN: 20.4 mg/dL
  CRE: 0.5 mg/dL
  Ca: 10.8 mg/dL
  Cl: 106 meq/L
  DBIL: 0.018 mg/dL
  GLC: 202.2 mg/dL
  IP: 8.6 mg/dL
  K: 4.9 meq/L
  LDH: 93.4 IU/L
  Na: 140 meq/L
  PL: 143.2 mg/dL
  RALB: 3.8 g/dL
  TBIL: 0.3 mg/dL
  TC: 77.2 mg/dL
  TG: 93.6 mg/dL
  TP: 5.5 g/dL
  gamma-GTP: 2.2 IU/L
80 mg/kg, 3 h, dose level Low
  TERMINAL_BW: 197.8 g
  APTT: 16.6 s
  Bas: 0%
  Eos: 0.4%
  Fbg: 212.4 mg/dL
  Hb: 13.4 g/dL
  Ht: 40%
  Lym: 73.4%
  MCH: 22 pg
  MCHC: 33.5%
  MCV: 65.8 fL
  Mono: 6.6%
  Neu: 20%
  PT: 12.3 s
  Plat: 114.6 x10_4/uL
  RBC: 608.6 x10_4/ul
  Ret: 9.4%
  WBC: 97 x10_2/uL
  KIDNEY_L: 0.8 g
  KIDNEY_R: 0.9 g
  KIDNEY_TOTAL: 1.7 g
  LIVER: 9 g
  A/G: 1.9
  ALP: 802.4 IU/L
  ALT: 41.2 IU/L
  AST: 75.2 IU/L
  BUN: 14.8 mg/dL
  CRE: 0.5 mg/dL
  Ca: 11 mg/dL
  Cl: 106.6 meq/L
  DBIL: 0.032 mg/dL
  GLC: 194.2 mg/dL
  IP: 10.2 mg/dL
  K: 5.1 meq/L
  LDH: 80.8 IU/L
  Na: 140.4 meq/L
  PL: 150.4 mg/dL
  RALB: 3.6 g/dL
  TBIL: 0.4 mg/dL
  TC: 88 mg/dL
  TG: 33 mg/dL
  TP: 5.5 g/dL
  gamma-GTP: 1 IU/L
80 mg/kg, 6 h, dose level Low
  TERMINAL_BW: 197.1 g
  APTT: 16.8 s
  Bas: 0%
  Eos: 0.6%
  Fbg: 207.2 mg/dL
  Hb: 13.1 g/dL
  Ht: 39.2%
  Lym: 76.2%
  MCH: 21.9 pg
  MCHC: 33.4%
  MCV: 65.4 fL
  Mono: 5.2%
  Neu: 17.8%
  PT: 12.2 s
  Plat: 116.6 x10_4/uL
  RBC: 599.8 x10_4/ul
  Ret: 9.5%
  WBC: 108.8 x10_2/uL
  KIDNEY_L: 0.9 g
  KIDNEY_R: 0.9 g
  KIDNEY_TOTAL: 1.7 g
  LIVER: 8.4 g
  A/G: 1.9
  ALP: 753.2 IU/L
  ALT: 36.4 IU/L
  AST: 76.2 IU/L
  BUN: 13 mg/dL
  CRE: 0.5 mg/dL
  Ca: 10.7 mg/dL
  Cl: 106.8 meq/L
  DBIL: 0.002 mg/dL
  GLC: 194 mg/dL
  IP: 10 mg/dL
  K: 4.8 meq/L
  LDH: 91 IU/L
  Na: 139.2 meq/L
  PL: 131.4 mg/dL
  RALB: 3.4 g/dL
  TBIL: 0.5 mg/dL
  TC: 73.4 mg/dL
  TG: 46 mg/dL
  TP: 5.3 g/dL
  gamma-GTP: 1 IU/L
80 mg/kg, 9 h, dose level Low
  TERMINAL_BW: 197.4 g
  APTT: 16.7 s
  Bas: 0%
  Eos: 0.8%
  Fbg: 223.2 mg/dL
  Hb: 12.9 g/dL
  Ht: 38.5%
  Lym: 71.4%
  MCH: 21.7 pg
  MCHC: 33.6%
  MCV: 64.7 fL
  Mono: 3.8%
  Neu: 24%
  PT: 11.7 s
  Plat: 117.4 x10_4/uL
  RBC: 596.2 x10_4/ul
  Ret: 9.2%
  WBC: 102 x10_2/uL
  KIDNEY_L: 0.8 g
  KIDNEY_R: 0.9 g
  KIDNEY_TOTAL: 1.7 g
  LIVER: 8 g
  A/G: 2.2
  ALP: 735 IU/L
  ALT: 35.2 IU/L
  AST: 73.4 IU/L
  BUN: 12.6 mg/dL
  CRE: 0.4 mg/dL
  Ca: 10.5 mg/dL
  Cl: 107.2 meq/L
  DBIL: 0.026 mg/dL
  GLC: 204.6 mg/dL
  IP: 9.6 mg/dL
  K: 4.7 meq/L
  LDH: 89.4 IU/L
  Na: 139.6 meq/L
  PL: 137.8 mg/dL
  RALB: 3.6 g/dL
  TBIL: 0.3 mg/dL
  TC: 79.4 mg/dL
  TG: 41 mg/dL
  TP: 5.3 g/dL
  gamma-GTP: 1.4 IU/L
80 mg/kg, 24 h, dose level Low
  TERMINAL_BW: 209.5 g
  APTT: 15.5 s
  Bas: 0%
  Eos: 0.8%
  Fbg: 225.8 mg/dL
  Hb: 12.9 g/dL
  Ht: 38.7%
  Lym: 79.4%
  MCH: 21.6 pg
  MCHC: 33.4%
  MCV: 64.7 fL
  Mono: 4.6%
  Neu: 15.2%
  PT: 11.8 s
  Plat: 123.2 x10_4/uL
  RBC: 598.4 x10_4/ul
  Ret: 9.8%
  WBC: 94.6 x10_2/uL
  KIDNEY_L: 0.9 g
  KIDNEY_R: 0.9 g
  KIDNEY_TOTAL: 1.8 g
  LIVER: 10 g
  A/G: 2.1
  ALP: 887.2 IU/L
  ALT: 36 IU/L
  AST: 63.6 IU/L
  BUN: 17.4 mg/dL
  CRE: 0.5 mg/dL
  Ca: 11.1 mg/dL
  Cl: 106 meq/L
  DBIL: 0.03 mg/dL
  GLC: 195.8 mg/dL
  IP: 8 mg/dL
  K: 5 meq/L
  LDH: 94.4 IU/L
  Na: 139.6 meq/L
  PL: 148.8 mg/dL
  RALB: 3.7 g/dL
  TBIL: 0.3 mg/dL
  TC: 82.6 mg/dL
  TG: 93 mg/dL
  TP: 5.5 g/dL
  gamma-GTP: 1.6 IU/L
